Experimental data: patent US11078220B2, “High-purity large-scale preparation of stannsoporfin” (Mallinckrodt Hospital Products IP Limited, priority 2006, dated 2021)

Legend:
[1] = Long-term storage stability of high-purity stannsoporfin at 40° C. and 75% relative humidity; type: physicochemical; conditions: 40° C./75% RH
Protocol: (§1) The long-term stability of the compound was studied under two different storage conditions: 25° C. (+/−2° C.) and 60% relative humidity (+/−5%); and 40° C. (+/−2° C.) and 75% relative humidity (+/−5%). Primary packaging for the compound was a 4-mil polyethylene bag and secondary packaging for the compound was a 4 mil polyethylene bag, stored in an HDPE drum.
(§2) Table 5 and Table 6 show stability data for the batch described in Table 3, under the 25° C./60% RH and 40° C./75% RH conditions, respectively. Table 7 and Table 8 show stability data for the batch described in Table 4 under the 25° C./60% RH and 40° C./75% RH conditions, respectively. Data for the zero-month time point was taken from the batch release analysis (the zero time point represents the actual date when samples were placed in the stability test chambers). The samples were analyzed at approximately 3 months and approximately 6 months after the samples were placed under the storage conditions.

[2] = Long-term storage stability of high-purity stannsoporfin at 25° C. and 60% relative humidity; type: physicochemical; conditions: 25° C./60% RH
Protocol: as §1, §2

[3] = batch of Table 3 (0.840 kg), 0 months
[4] = batch of Table 3 (0.840 kg), 3 months
[5] = batch of Table 3 (0.840 kg), 6 months
[6] = batch of Table 4 (1.364 kg), 0 months
[7] = batch of Table 4 (1.364 kg), 3 months
[8] = batch of Table 4 (1.364 kg), 6 months

## tin (IV) mesoporphyrin IX dichloride [stannsoporfin]
[1]; [3]
  HPLC assay (w/w as is): 100.4%
  HPLC assay (w/w, solvent-free anhydrous basis): 100.7%
  HPLC purity (impurity peak at RRt retention time 0.72-0.73): 0.06%
  HPLC purity (total impurities): 03
  Water content (Karl Fischer, coulometric): Trace <1%
[1]; [4]
  HPLC assay (w/w as is): 100.9%
  HPLC assay (w/w, solvent-free anhydrous basis): 101.2%
  HPLC purity (impurity peak at RRt retention time 0.72-0.73): <0.05%
  HPLC purity (total impurities): 0.28
  Water content (Karl Fischer, coulometric): <1% (0.2%)
[1]; [5]
  HPLC assay (w/w as is): 99.6%
  HPLC assay (w/w, solvent-free anhydrous basis): 99.8%
  HPLC purity (impurity peak at RRt retention time 0.72-0.73): 0.06%
  HPLC purity (total impurities): 0.26
  Water content (Karl Fischer, coulometric): <1% (0.1%)
[1]; [6]
  HPLC assay (w/w as is): 102.3%
  HPLC assay (w/w, solvent-free anhydrous basis): 102.3%
  HPLC purity (impurity peak at RRt retention time 0.72-0.73): 0.06%
  HPLC purity (total impurities): 0.22
  Water content (Karl Fischer, coulometric): Trace < 1%
[1]; [7]
  HPLC assay (w/w as is): 101.0%
  HPLC assay (w/w, solvent-free anhydrous basis): 101.1%
  HPLC purity (impurity peak at RRt retention time 0.72-0.73): <0.05%
  HPLC purity (total impurities): 0.29
  Water content (Karl Fischer, coulometric): <1% (0.1%)
[1]; [8]
  HPLC assay (w/w as is): 97.7%
  HPLC assay (w/w, solvent-free anhydrous basis): 97.8%
  HPLC purity (impurity peak at RRt retention time 0.72-0.73): 0.06%
  HPLC purity (total impurities): 0.24
  Water content (Karl Fischer, coulometric): <1% (0.1%)
[2]; [3]
  HPLC assay (w/w as is): 100.4%
  HPLC assay (w/w, solvent-free anhydrous basis): 100.7%
  HPLC purity (impurity peak at RRt retention time 0.72-0.73): 0.06%
  HPLC purity (total impurities): 0.3
  Water content (Karl Fischer, coulometric): Trace < 1%
[2]; [4]
  HPLC assay (w/w as is): 99.6%
  HPLC assay (w/w, solvent-free anhydrous basis): 99.8%
  HPLC purity (impurity peak at RRt retention time 0.72-0.73): <0.05%
  HPLC purity (total impurities): 0.22
  Water content (Karl Fischer, coulometric): <1% (0.1%)
[2]; [5]
  HPLC assay (w/w as is): 98.2%
  HPLC assay (w/w, solvent-free anhydrous basis): 98.4%
  HPLC purity (impurity peak at RRt retention time 0.72-0.73): 0.07%
  HPLC purity (total impurities): 0.24
  Water content (Karl Fischer, coulometric): <1% (0.1%)
[2]; [6]
  HPLC assay (w/w as is): 102.3%
  HPLC assay (w/w, solvent-free anhydrous basis): 102.3%
  HPLC parity (total impurities): 0.22
  HPLC purity (impurity peak at RRt retention time 0.72-0.73): 0.06%
  Water content (Karl Fischer, coulometric): Trace < 1%
[2]; [7]
  HPLC assay (w/w as is): 102.0%
  HPLC assay (w/w, solvent-free anhydrous basis): 102.1%
  HPLC parity (total impurities): 0.29
  HPLC purity (impurity peak at RRt retention time 0.72-0.73): 0.05%
  Water content (Karl Fischer, coulometric): <1% (0.1%)
[2]; [8]
  HPLC assay (w/w as is): 98.4%
  HPLC assay (w/w, solvent-free anhydrous basis): 98.5%
  HPLC parity (total impurities): 0.19
  HPLC purity (impurity peak at RRt retention time 0.72-0.73): 0.05%
  Water content (Karl Fischer, coulometric): <1% (0.1%)
